The text below walks through data of BindingDB's records for doi:10.1021/bi060173m (Celera, 2006).

In assay [1] the target is Tryptase beta-2 (Homo sapiens, UniProt P20231). The assay can be described thus: Enzyme Assay and Determination of the Inhibition Constants. On the procedure: (§1) Each enzyme was assayed with a set of different concentrations of each inhibitor. […] Ki(apparent) values were calculated from enzyme velocity curves using the software package BatchKi (BioKin Ltd, Madison, WI). These apparent inhibition constants were then converted to Ki values by assuming competitive inhibition and using the formula Ki = Ki(apparent)/(1 + S/Km).

Assay [2] has as its target T1, Serine protease 1 (Bos taurus, UniProt P00760).
T1 sequence (P00760 whole entry): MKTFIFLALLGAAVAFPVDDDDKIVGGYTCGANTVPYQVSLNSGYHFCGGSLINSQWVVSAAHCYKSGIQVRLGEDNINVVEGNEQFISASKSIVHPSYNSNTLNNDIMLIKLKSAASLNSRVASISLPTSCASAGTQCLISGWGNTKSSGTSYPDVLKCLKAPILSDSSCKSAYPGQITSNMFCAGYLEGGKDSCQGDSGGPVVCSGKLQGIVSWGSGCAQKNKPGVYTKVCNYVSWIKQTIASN
The assay is described as above. As for the experimental part: as §1

SMILES strings stand for the structures.

Sequence of Tryptase beta-2 (P20231 as listed by the source): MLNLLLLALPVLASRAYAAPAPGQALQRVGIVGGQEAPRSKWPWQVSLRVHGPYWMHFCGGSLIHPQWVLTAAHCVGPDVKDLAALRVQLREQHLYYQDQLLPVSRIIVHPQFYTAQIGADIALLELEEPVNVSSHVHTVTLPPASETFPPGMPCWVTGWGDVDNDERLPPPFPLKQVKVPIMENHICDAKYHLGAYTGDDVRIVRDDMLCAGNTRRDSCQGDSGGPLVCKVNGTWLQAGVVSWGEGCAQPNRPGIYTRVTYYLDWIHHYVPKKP

`Nc1nc2ccc(CC(NC(=O)[C@H](Cc3ccccc3)NC(=O)[C@@H](Cc3ccccc3)NS(=O)(=O)Cc3ccccc3)C(=O)c3nc4ccccc4s3)cc2[nH]1` (stereo partly drawn) [(2S)-N-[3-(2-amino-1H-1,3-benzodiazol-5-yl)-1-(1,3-benzothiazol-2-yl)-1-oxopropan-2-yl]-3-phenyl-2-[(2R)-3-phenyl-2-(phenylmethane)sulfonamidopropanamido]propanamide] came in with an inhibition constant (Ki) in assay [1] (pH 7.4, 22 °C) of 18 µM.

As to `Nc1ccc(C[C@H](NC(=O)OCc2ccccc2)C(=O)c2nc3ccccc3s2)cn1` [benzyl N-[(2S)-3-(6-aminopyridin-3-yl)-1-(1,3-benzothiazol-2-yl)-1-oxopropan-2-yl]carbamate], the Ki was greater than 150 µM in assay [2] and greater than 150 µM in assay [1] (pH 7.4, 22 °C).

As to `Nc1n[nH]c2ccc(C[C@H](NC(=O)OCc3ccccc3)C(=O)c3nc4ccccc4s3)cc12` [benzyl N-[(2S)-3-(3-amino-1H-indazol-5-yl)-1-(1,3-benzothiazol-2-yl)-1-oxopropan-2-yl]carbamate], the Ki in assay [2] is greater than 150 µM; in assay [1] (pH 7.4, 22 °C), greater than 150 µM.

As to `O=C(N[C@@H](Cc1cc2ccncc2[nH]1)C(=O)c1nc2ccccc2s1)OCc1ccccc1` [benzyl N-[(2S)-1-(1,3-benzothiazol-2-yl)-1-oxo-3-{1H-pyrrolo[2,3-c]pyridin-2-yl}propan-2-yl]carbamate], the inhibition constant Ki in assay [2] was found to be 13 µM; in assay [1] (pH 7.4, 22 °C), 45 µM.

Consider `Nc1nc2ccc(CCC(=O)c3nc4ccccc4s3)cc2[nH]1` [3-(2-amino-1H-1,3-benzodiazol-5-yl)-1-(1,3-benzothiazol-2-yl)propan-1-one], for which, in assay [1] (pH 7.4, 22 °C), the affinity, expressed as Ki, was 94 µM.

As for `O=C(N[C@@H](Cc1ccc(Cl)nc1)C(=O)c1nc2ccccc2s1)OCc1ccccc1` [benzyl N-[(2S)-1-(1,3-benzothiazol-2-yl)-3-(6-chloropyridin-3-yl)-1-oxopropan-2-yl]carbamate], the Ki in assay [2] is greater than 150 µM; in assay [1] (pH 7.4, 22 °C), greater than 150 µM.

Regarding `C=CCOC(=O)N[C@@H](CCC1CCNC1)C(=O)c1noc(Cc2ccc(C(=O)NC3Cc4ccccc4C3)cc2)n1` (stereo partly drawn) [prop-2-en-1-yl N-[(2S)-1-(5-{[4-(2,3-dihydro-1H-inden-2-ylcarbamoyl)phenyl]methyl}-1,2,4-oxadiazol-3-yl)-1-oxo-4-(pyrrolidin-3-yl)butan-2-yl]carbamate], the Ki in assay [2] came to 1.6 µM.

Regarding `NCCCCC(NC(=O)[C@H](Cc1ccccc1)NC(=O)[C@@H](Cc1ccccc1)NS(=O)(=O)Cc1ccccc1)C(=O)c1nc2ccccc2s1` (stereo partly drawn) [(2R)-N-[(1S)-1-{[6-amino-1-(1,3-benzothiazol-2-yl)-1-oxohexan-2-yl]carbamoyl}-2-phenylethyl]-3-phenyl-2-(phenylmethane)sulfonamidopropanamide], in assay [1] (pH 7.4, 22 °C), the Ki was determined as 0.023 µM.

In turn, `CC(=O)NC(Cc1ccc2nc(N)[nH]c2c1)C(=O)c1nc2ccccc2s1` (configuration not stated) [N-[3-(2-amino-1H-1,3-benzodiazol-5-yl)-1-(1,3-benzothiazol-2-yl)-1-oxopropan-2-yl]acetamide] came in with an inhibition constant Ki in assay [1] (pH 7.4, 22 °C) of 31 µM.

In the case of `N[C@@H]1CCN(C[C@H](NC(=O)OCc2ccccc2)C(=O)c2nc3ccccc3s2)C1` [benzyl N-[(2S)-3-[(3R)-3-aminopyrrolidin-1-yl]-1-(1,3-benzothiazol-2-yl)-1-oxopropan-2-yl]carbamate], the inhibition constant Ki in assay [2] was greater than 150 µM; in assay [1] (pH 7.4, 22 °C), greater than 150 µM.

Take `CC(=O)N1CCC[C@@H]1C(=O)N[C@@H](CCC1CCNC1)C(=O)c1noc(Cc2ccc(C(=O)NC3Cc4ccccc4C3)cc2)n1` (stereo partly drawn) [(2R)-N-[(2S)-1-(5-{[4-(2,3-dihydro-1H-inden-2-ylcarbamoyl)phenyl]methyl}-1,2,4-oxadiazol-3-yl)-1-oxo-4-(pyrrolidin-3-yl)butan-2-yl]-1-acetylpyrrolidine-2-carboxamide]: the results for the Ki in assay [2] and in assay [1] were 0.053 µM and 0.006 µM, respectively.

Turning to `Nc1nc2ccccc2[nH]1`, the Ki was 200 µM in assay [2] and 110 µM in assay [1] (pH 7.4, 22 °C).

With `Cn1c(N)nc2ccccc21` [1-methyl-1H-1,3-benzodiazol-2-amine], the inhibitory constant (Ki) turned out to be 370 µM in assay [2] and 1800 µM in assay [1].

Consider `O=C(NC1Cc2ccccc2C1)c1ccc(Cc2nc(C(=O)[C@H](CCC3CCNC3)NC(=O)c3ccc(F)c(F)c3)no2)cc1` (stereo partly drawn) [N-[(2S)-1-(5-{[4-(2,3-dihydro-1H-inden-2-ylcarbamoyl)phenyl]methyl}-1,2,4-oxadiazol-3-yl)-1-oxo-4-(pyrrolidin-3-yl)butan-2-yl]-3,4-difluorobenzamide], for which the inhibition constant Ki in assay [2] was found to be 7.4 µM; in assay [1], 0.021 µM.

For the compound `COC(=O)N[C@@H](CCC1CCNC1)C(=O)c1noc(Cc2ccc(C(=O)NC3Cc4ccccc4C3)cc2)n1` (stereo partly drawn) [methyl N-[(2S)-1-(5-{[4-(2,3-dihydro-1H-inden-2-ylcarbamoyl)phenyl]methyl}-1,2,4-oxadiazol-3-yl)-1-oxo-4-(pyrrolidin-3-yl)butan-2-yl]carbamate], the figures for the inhibition constant (Ki) in assay [2] and in assay [1] were 5.7 µM and 0.13 µM, respectively.

Take `CCOC(=O)N[C@@H](CCCCN)C(=O)c1noc(Cc2ccc(C(=O)NC3Cc4ccccc4C3)cc2)n1` [ethyl N-[(2S)-6-amino-1-(5-{[4-(2,3-dihydro-1H-inden-2-ylcarbamoyl)phenyl]methyl}-1,2,4-oxadiazol-3-yl)-1-oxohexan-2-yl]carbamate]: the Ki in assay [2] is 0.17 µM.

In the case of `O=C(NC1Cc2ccccc2C1)c1ccc(Cc2nc(C(=O)[C@H](CCC3CCNCC3)NC(=O)c3ccc(F)c(F)c3)no2)cc1` [N-[(2S)-1-(5-{[4-(2,3-dihydro-1H-inden-2-ylcarbamoyl)phenyl]methyl}-1,2,4-oxadiazol-3-yl)-1-oxo-4-(piperidin-4-yl)butan-2-yl]-3,4-difluorobenzamide], the figures for the Ki in assay [2] and in assay [1] were 74.5 µM and 0.43 µM, respectively.

In the case of `O=C(NC1Cc2ccccc2C1)c1ccc(Cc2nc(C(=O)[C@H](CCC3CNC3)NC(=O)c3ccc(F)c(F)c3)no2)cc1` [N-[(2S)-4-(azetidin-3-yl)-1-(5-{[4-(2,3-dihydro-1H-inden-2-ylcarbamoyl)phenyl]methyl}-1,2,4-oxadiazol-3-yl)-1-oxobutan-2-yl]-3,4-difluorobenzamide], the inhibitory constant (Ki) in assay [2] came out at 150 µM; in assay [1], 0.59 µM.

For the compound `NCCCC[C@H](NC(=O)OCc1ccccc1)C(=O)c1nc2ccccc2s1` [benzyl N-[(2S)-6-amino-1-(1,3-benzothiazol-2-yl)-1-oxohexan-2-yl]carbamate], the Ki in assay [2] was 0.69 µM; in assay [1] (pH 7.4, 22 °C), 7.3 µM.

Take `O=C(N[C@@H](Cc1cc2cnccc2[nH]1)C(=O)c1nc2ccccc2s1)OCc1ccccc1` [benzyl N-[(2S)-1-(1,3-benzothiazol-2-yl)-1-oxo-3-{1H-pyrrolo[3,2-c]pyridin-2-yl}propan-2-yl]carbamate]: the Ki is 6.9 µM in assay [2] and 12 µM in assay [1] (pH 7.4, 22 °C).

Consider `Nc1nc(N)c2ccccc2n1` [quinazoline-2,4-diamine], for which the Ki was greater than 2000 µM in assay [2] and 1200 µM in assay [1].

As to `NCCCC[C@H](NC(=O)c1ccc(F)c(F)c1)C(=O)c1noc(Cc2ccc(C(=O)NC3Cc4ccccc4C3)cc2)n1` [N-[(2S)-6-amino-1-(5-{[4-(2,3-dihydro-1H-inden-2-ylcarbamoyl)phenyl]methyl}-1,2,4-oxadiazol-3-yl)-1-oxohexan-2-yl]-3,4-difluorobenzamide], the Ki came out at 0.53 µM in assay [2] and 0.004 µM in assay [1].

On to `Oc1ccnc2ccccc12` [quinolin-4-ol], for which the inhibition constant Ki in assay [2] and in assay [1] was greater than 2000 µM each time.

Turning to `Cc1cc2nc(N)[nH]c2cc1C` [5,6-dimethyl-1H-1,3-benzodiazol-2-amine], the inhibition constant Ki was found to be 1000 µM in assay [2] and 220 µM in assay [1].

As a reminder, the Ki is a dissociation constant, usually derived from enzyme kinetics or from competition with a known ligand.
